# Where a name gives a salt, the structure may show the parent alone.
row,Structure (SMILES),melting point
1,"C[C@H]1C[C@@H](Nc2ccccc2)c2ccccc2N1C(=O)c1ccncc1 (relative stereo) (hydrate or solvate) [Example 3, cis-1-Isonicotinoyl-2-methyl-N-phenyl-1,2,3,4-tetrahydro-4-quinolinamine]",210 °C
2,"COc1ccc(C(=O)N2CCC(Nc3ccc(Cl)cc3)c3ccccc32)cc1OC (stereo not shown) [Example 14, N-(4-chlorophenyl)-1-(3,4-dimethoxybenzoyl)-1,2,3,4-tetrahydro-4-quinolinamine]",131 °C
3,"C[C@H]1C[C@@H](Nc2ccccc2)c2ccccc2N1C(=O)c1ccccn1 (relative stereo) [Example 4, cis-2-Methyl-N-phenyl-1-(2-pyridinylcarbonyl)-1,2,3,4-tetrahydro-4-quinolinamine]",157 °C
4,"COc1ccc(C(=O)N2c3ccccc3C(Nc3ccc(Br)cc3)CC2C)cc1OC (stereo not shown) [Example 12, N-(4-Bromophenyl)-1-(3,4-dimethoxybenzoyl)-2-methyl-1,2,3,4-tetrahydro-4-quinolinamine]",173 to 175 °C
5,"CCC1CC(N(C)c2ccccc2)c2ccccc2N1C(=O)c1ccc(OC)c(OC)c1 (stereo not shown) [Example 54, 1-(3,4-Dimethoxybenzoyl)-2-ethyl-N-methyl-N-phenyl-1,2,3,4-tetrahydro-4-quinolinamine]",146 to 148 °C
6,"COc1ccc(C(=O)N2CCC(N(C)c3ccccc3Cl)c3ccccc32)cc1OC (stereo not shown) [Example 35, N-(2-Chlorophenyl)-1-(3,4-dimethoxybenzoyl)-N-methyl-1,2,3,4-tetrahydro-4-quinolinamine]",146 to 147 °C
7,"C[C@H]1C[C@@H](Nc2ccccc2)c2ccccc2N1C(=O)c1ccc(-c2ccc(Cl)cc2)cc1 (relative stereo) [Example 52, cis-1-[(4′-Chloro[1,1′-biphenyl]-4-yl)carbonyl]-2-methyl-N-phenyl-1,2,3,4-tetrahydro-4-quinolinamine]",193 to 194 °C
8,"COc1ccc(C(=O)N2CCC(Nc3ccc4c(c3)OCO4)c3ccccc32)cc1OC (stereo not shown) [Example 31, N-(1,3-Benzodioxol-5-yl)-1-(3,4-dimethoxybenzoyl)-1,2,3,4-tetrahydro-4-quinolinamine]",135 to 136 °C
9,"COc1ccc(C(=O)N2CCC(Nc3ccc(Br)cc3)c3ccccc32)cc1OC (stereo not shown) [Example 34, N-(4-Bromophenyl)-1-(3,4-dimethoxybenzoyl)-1,2,3,4-tetrahydro-4-quinolinamine]",130 °C
10,"COc1ccc(C(=O)N2CCC(Nc3c(Cl)cccc3Cl)c3ccccc32)cc1OC (stereo not shown) [Example 26, N-(2,6-Dichlorophenyl)-1-(3,4-dimethoxybenzoyl)-1,2,3,4-tetrahydro-4-quinolinamine]",154 to 156 °C
11,"C[C@H]1C[C@H](Nc2ccccc2)c2ccccc2N1C(=O)c1ccc(Br)o1 (relative stereo) [Example 41, trans-1-(5-Bromo-2-furoyl)-2-methyl-N-phenyl-1,2,3,4-tetrahydro-4-quinolinamine]",117 to 118 °C
12,"COc1ccc(C(=O)N2c3ccccc3[C@H](N(C)c3ccccc3)C[C@@H]2C)cc1OC (racemic) [Example 28, cis-1-(3,4-Dimethoxybenzoyl)-N,2-dimethyl-N-phenyl-1,2,3,4-tetrahydro-4-quinolinamine]",180 to 181 °C
13,"COc1ccc(C(=O)N2CCC(Nc3ccccc3Cl)c3ccccc32)cc1OC (stereo not shown) [Example 23, N-(2-Chlorophenyl)-1-(3,4-dimethoxybenzoyl)-1,2,3,4-tetrahydro-4-quinolinamine]",92 to 93 °C
14,"C[C@H]1C[C@@H](Nc2ccccc2)c2ccccc2N1C(=O)c1ccncc1 (relative stereo) [Example 3, cis-1-Isonicotinoyl-2-methyl-N-phenyl-1,2,3,4-tetrahydro-4-quinolinamine]",121 °C
15,"COc1ccc(C(=O)N2CCC(Nc3ccc(Cl)cc3)c3cc(Cl)ccc32)cc1OC (stereo not shown) [Example 47, 6-Chloro-N-(4-chlorophenyl)-1-(3,4-dimethoxybenzoyl)-1,2,3,4-tetrahydro-4-quinolinamine]",176 to 178 °C
16,"COc1ccc(C(=O)N2CCC(Nc3ccccc3)c3cc(Cl)ccc32)cc1OC (stereo not shown) [Example 48, 6-Chloro-1-(3,4-dimethoxybenzoyl)-N-phenyl-1,2,3,4-tetrahydro-4-quinolinamine]",188 to 189 °C
17,"COc1ccc(C(=O)N2c3ccccc3C(Nc3ccc(Cl)cc3Cl)CC2C)cc1OC (stereo not shown) [Example 43, N-(2,4-Dichlorophenyl)-1-(3,4-dimethoxybenzoyl)-2-methyl-1,2,3,4-tetrahydro-4-quinolinamine]",165 to 167 °C
18,"COc1ccc(C(=O)N2CCC(Nc3ccccc3Cl)c3ccc(Cl)cc32)cc1OC (stereo not shown) (as salt: hydrochloride) [Example 51, 7-Chloro-N-(2-chlorophenyl)-1-(3,4-dimethoxybenzoyl)-1,2,3,4-tetrahydro-4-quinolinamine Hydrochloride]",74 to 76 °C
19,"COc1ccc(C(=O)N2CCC(Nc3ccccc3)c3ccc(Cl)cc32)cc1OC (stereo not shown) [Example 50, 7-Chloro-1-(3,4-dimethoxybenzoyl)-N-phenyl-1,2,3,4-tetrahydro-4-quinolinamine]",125 to 126 °C
20,"COc1ccc(C(=O)N2CCC(N(C)c3ccccc3)c3ccccc32)cc1OC (stereo not shown) [Example 18, 1-(3,4-Dimethoxybenzoyl)-N-methyl-N-phenyl-1,2,3,4-tetrahydro-4-quinolinamine]",143 to 144 °C
21,"COc1ccc(C(=O)N2CCC(Nc3ccc(C)c(Cl)c3)c3ccccc32)cc1OC (stereo not shown) [Example 38, N-(3-Chloro-4-methylphenyl)-1-(3,4-dimethoxybenzoyl)-1,2,3,4-tetrahydro-4-quinolinamine]",94 to 96 °C
22,"COc1ccc(C(=O)N2CCC(N(C)c3ccccc3C)c3ccccc32)cc1OC (stereo not shown) [Example 25, 1-(3,4-Dimethoxybenzoyl)-N-methyl-N-(2-methylphenyl)-1,2,3,4-tetrahydro-4-quinolinamine]",170 to 171 °C
23,COc1ccc(C(=O)N2CCC(Oc3ccc(Br)cc3)c3ccccc32)cc1OC (stereo not shown) [Example 19],56 to 57 °C
24,COc1ccc(C(=O)N2CCC(Nc3ccccc3C(C)C)c3ccccc32)cc1OC.Cl (stereo not shown),93 to 96 °C
25,"COc1cc(C(=O)N2c3ccccc3[C@@H](Nc3ccccc3)C[C@@H]2C)cc(OC)c1OC (relative stereo) [Example 8, Trans-2-Methyl-N-phenyl-1-(3,4,5-trimethoxybenzoyl)-1,2,3,4-tetrahydro-4-quinolinamine]",205 °C
26,"COc1ccc(C(=O)N2CCC(Nc3ccccc3F)c3ccccc32)cc1OC (stereo not shown) [Example 24, 1-(3,4-Dimethoxybenzoyl)-N-(2-fluorophenyl)-1,2,3,4-tetrahydro-4-quinolinamine]",133 to 134 °C
27,"COc1ccc(C(=O)N2c3ccccc3C(Nc3ccccc3Cl)CC2C)cc1OC (stereo not shown) [Example 27, N-(2-Chlorophenyl)-1-(3,4-dimethoxybenzoyl)-2-methyl-1,2,3,4-tetrahydro-4-quinolinamine]",148 to 150 °C
28,"COc1ccc(C(=O)N2c3ccccc3[C@@H](Nc3cccc(C)n3)C[C@@H]2C)cc1OC (relative stereo) [Example 13, Trans-1-(3,4-Dimethoxybenzoyl)-2-methyl-N-(6-methyl-2-pyridinyl)-1,2,3,4-tetrahydro-4-quinolinamine]",184 to 186 °C

# — US20030216398A1, “Soluble beta amyloid precursor protein secretion promoters” (priority 2002, published 2003)
